Data on one compound can be found in US4518606A, “Pharmaceutical compositions” (Beecham Group Limited, priority 1979, dated 1985).

What all share (assay type): in vivo
Data set [1] has as its system rats. As to the kind of experiment: acute toxicity, intramuscular, rats. The conditions noted are these: 750 mg/kg in 3% solution (25 ml/kg). How it is done: (§1) No mortality is observed in mice or rats treated at the rate of 750 mg/kg of benzyl alcohol in 3% solution (viz 25 ml/kg of solution) by the intramuscular route.
The test system of data set [2] is rats. As to the kind of experiment: sub-acute toxicity, intramuscular, 2 weeks, male and female rats. The following applies: 150 mg/kg (5 ml/kg of 3% solution). How it is done:
Over a period of 2 weeks, 10 male rats and female rats receive 150 mg/kg of benzyl alcohol, that is to say 5 ml/kg of 3% aqueous solution by the intramuscular route. […] Within the context of the anatomopathological examination, the liver, kidneys, spleen, lungs, suprarenals, testicles and ovaries are normal.

Another data set deals with mice. The data set is described as follows: acute toxicity, intramuscular, mice. The following applies: 750 mg/kg in 3% solution (25 ml/kg). How it is done:
as §1

Regarding `OCc1ccccc1` [benzyl alcohol], in the data set with rats [1], the mortality entry is given as “No mortality”. In the data set with rats [2], the abnormal symptoms result is recorded as “No abnormal symptom appears”; the “anatomopathological examination (liver, kidneys, spleen, lungs, suprarenals, testicles and ovaries)” value is “normal”; the haematological variations entry is given as “within the limits of physiological variations”; the “variations in blood and urine biochemistry” value is “within the limits of physiological variations”. Further, the variations in weight result with rats [2] is recorded as “within the limits of physiological variations”. Moreover, in the data set on mice, the mortality entry is “No mortality”.
